Measurements taken from patent US10179138B2, “Pharmaceutical composition comprising 7β-hydroxycholesterol intravenous administration” (Immunopharm AG, priority 2016, dated 2019).
Where two headings read alike, the source gives them in different places.

Key:
[1] = cited from earlier work; for behaviour in aqueous solution over time: after several hours
[2] = test system: human cell lines of colon carcinoma; settings: cited from earlier work
[3] = assay type: physicochemical; settings: for decomposition of 7β-hydroxycholesterol after sterilization: sterilization at 120° C.
Procedure: The solution has been stored in glass vials.
A readily prepared infusion solution (on the basis of physiological saline solution) has been stored at room temperature (<25° C.) for 3 months.

[4] = assay type: physicochemical
Source text: However, if you want to dilute the solution of 7β-hydroxycholesterol/solvent in an aqueous liquid, e.g. for the provision of an infusion solution, the substance flocculates. Thus, the inventors use a solubilizing agent in order to maintain 7β-hydroxycholesterol in the later infusion solution in solution.

[5] = cited from earlier work
[6] = readily prepared infusion solution (physiological saline), room temperature (<25° C.), 3 months

In the case of CC(C)CCC[C@@H](C)[C@H]1CC[C@H]2[C@@H]3[C@@H](OC(=O)CCC(=O)[O-])C=C4C[C@@H](OC(=O)CCC(=O)[O-])CC[C@]4(C)[C@H]3CC[C@]12C.[Na+].[Na+] [7β-hydroxycholesteryl-bishemisuccinate-disodium], the “behaviour in aqueous solution over time” value [1] is listed as “starts to decompose and to flocculate”, the “stability in aqueous solution” value [1] is listed as “instable” and the water solubility [1] is listed as “water soluble”. For the same compound, the induction of apoptosis [2] was “induction of apoptosis”.

For “hydroxycholesteryl-bishemisuccinate-diethanolamine”, the “behaviour in aqueous solution over time” value [1] is given as “starts to decompose and to flocculate”, the “stability in aqueous solution” value [1] is given as “instable” and the induction of apoptosis [2] is given as “induction of apoptosis”.

In the case of CC(C)CCC[C@@H](C)[C@H]1CC[C@H]2[C@@H]3[C@@H](O)C=C4C[C@@H](O)CC[C@]4(C)[C@H]3CC[C@]12C [7β-hydroxycholesterol], the “decomposition of 7β-hydroxycholesterol on storage” value ([3]; concentrate stored at 40° C. for 3 months in glass vials) is reported as “did not show a decomposition”, the “decomposition of 7β-hydroxycholesterol after sterilization” value ([3]; concentrate) is reported as “remained stable” and the “decomposition of 7β-hydroxycholesterol after sterilization” value ([3]; readily prepared infusion solution (physiological saline solution)) is reported as “remained stable”. The “appearance / flocculation of solution on storage” value [3, 6] was “remained clear, there was no flocculation”, the “decrease of content of 7β-hydroxycholesterol by HPLC after storage” value [3, 6] was “could not be determined” and the “behaviour on dilution of solvent solution in aqueous liquid” value [4] was “flocculates”. For the same compound, the “solubility in water soluble organic solvent” value [4] was “excellent solubility”, the “stability of solution in water soluble organic solvent” value [4] was “remain stable for years” and the solubility in water [5] was “insoluble in water”.
